Laboratory results: PubChem BioAssay AID540252 (Sanford-Burnham Center for Chemical Genomics, 2011)
Active and inactive are the calls of the source. How the calls were made is not given here.

biological target: glucose-6-phosphate dehydrogenase-6-phosphogluconolactonase (Plasmodium falciparum 3D7); experiment: PfG6PD enzyme inhibitors, direct NADPH readout, dose response, orthogonal assay, biochemical, end-point NADPH detection (AID 540252); settings: purified PfG6PD enzyme

Row | Compound | IC50
1 | N#Cc1ccc2sn(-c3ccccc3)c(=O)c2c1 | 15.2 µM
2 | Cc1cc(C)c2sc(NC(=O)C3=COCCO3)nc2c1 | > 80 µM (inactive)
3 | O=C1C=CC(=O)N1CCCCCCCCCCN1C(=O)C=CC1=O | > 80 µM (inactive)
4 | CCOC(=O)CSc1nnc(NC(=O)c2cccc([N+](=O)[O-])c2)s1 | > 80 µM (inactive)
5 | O=C(Nc1ccc(N2CCCC2)cc1)c1cccc(-c2cc3ccccc3oc2=O)c1 | > 80 µM (inactive)
6 | Oc1cc(-n2cccn2)c(O)cc1-n1cccn1 | > 80 µM (inactive)
7 | CCc1ccc(OCC(=O)N/N=C/c2cc([N+](=O)[O-])ccc2N2CCOCC2)cc1 | > 80 µM (inactive)
8 | CC(NC1=CC(=O)c2cccnc2C1=O)C(O)c1ccccc1 (stereo not drawn) | > 80 µM (inactive)
9 | CSc1nnc(NC(=O)c2ccc3c(c2)OCO3)s1 | > 80 µM (inactive)
10 | O=C(CCC(=O)Nc1ccccc1Cl)N/N=C/c1ccccc1 | > 80 µM (inactive)
11 | O=C(COC(=O)c1cnccn1)c1ccc([N+](=O)[O-])cc1 | 54.9 µM
12 | COc1cc(N=Cc2c(CO)cnc(C)c2O)cc(OC)c1OC | > 80 µM (inactive)
13 | COc1cc(C(=O)O/N=C2/C=C(C)C(=O)C=C2C)cc(OC)c1OC | > 80 µM (inactive)
14 | CCN(CC)CCn1c2ccccc2c(=O)c2c(O)ccc(O)c21 | > 80 µM (inactive)
15 | COc1ccc(C(=O)/C=C2\Sc3ccccc3N2C)cc1 | > 80 µM (inactive)
16 | CCn1c(N)c(C(=O)NC)sc1=S | > 80 µM (inactive)
17 | NS(=O)(=O)c1ccc(-c2ccc(C=C3C(=O)NC(=O)NC3=O)o2)cc1 | > 80 µM (inactive)
18 | COc1cccc(-c2c(C(=O)N/N=C/c3ccc(C)o3)nnn2-c2nonc2N)c1 | > 80 µM (inactive)
19 | NC(=O)N/N=C/c1ccc(-n2nncc2-c2ccc(Cl)cc2)cc1 | > 80 µM (inactive)
20 | C=CCN1C=C2C(=O)C(C)(OC(=O)CCC(=O)OC)C(=O)C(Br)=C2C=C1c1ccc(OC)cc1 (stereo not drawn) | > 80 µM (inactive)
21 | CS(=O)(=O)c1ccc(N)c(SSc2cc(S(C)(=O)=O)ccc2N)c1 | 17.6 µM
22 | Cc1ccccc1OCC(=O)N/N=C/c1ccc(Sc2nc3ccccc3s2)o1 | > 80 µM (inactive)
23 | COc1cc(N=c2ssnc2Cl)cc(OC)c1 | 72.6 µM
24 | CC(=O)Nc1ccc(S(=O)(=O)NNc2cccc(C)c2)cc1 | > 80 µM (inactive)
25 | CCN=c1scc(C)n1/N=C/c1ccc(O)c(O)c1O | > 80 µM (inactive)
26 | [O-][N+](=Cc1ccccc1)c1ccc(Cl)cc1 | > 80 µM (inactive)

Row | Compound | IC50
27 | CCCN1CCc2cc(O)cc3c2[C@H]1Cc1ccc(O)c(O)c1-3 | > 80 µM (inactive)
28 | COc1cc(CN2CCN(CCCc3ccccc3)C(CCO)C2)cc(OC)c1O (stereo not drawn) | > 80 µM (inactive)
29 | Cc1ccc(-c2nc(N3CCOCC3)s[n+]2-c2ccccc2)cc1 | > 80 µM (inactive)
30 | C=C1C(=O)O[C@@H]2C[C@@H](C)[C@@H]3C=CC(=O)[C@@]3(C)[C@@H](OC(=O)CC(=O)O[C@H]3[C@@H]4C(=C)C(=O)O[C@@H]4C[C@@H](C)[C@@H]4C=CC(=O)[C@]43C)[C@H]12 | > 80 µM (inactive)
31 | COc1ccc(NC(C)C(=O)N/N=C/c2cc(Br)ccc2OC)cc1 (stereo not drawn) | > 80 µM (inactive)
32 | Cc1cc(N=NC(=O)c2ccccc2O)c2ccccc2c1O | > 80 µM (inactive)
33 | O=C(COc1ccccc1F)OCC(=O)c1ccc([N+](=O)[O-])cc1 | 44.6 µM
34 | N#Cc1ccc2c(=O)n(-c3ccccc3)sc2c1 | > 80 µM (inactive)
35 | Cc1cc(O)c(C(C)C)cc1N=Cc1ccccc1[N+](=O)[O-] | > 80 µM (inactive)
36 | CCN(CC)c1nc(N)nc(NS(=O)(=O)c2ccc(Cl)cc2)n1 | > 80 µM (inactive)
37 | CCn1c(SCC(=O)Nc2ccccc2OC)nnc1-c1cnccn1 | > 80 µM (inactive)
38 | COc1ccc(C(=O)c2c(C(F)(F)F)oc3c2C(=O)c2ccccc2C3=O)cc1 | > 80 µM (inactive)
39 | Clc1ccc2nc(-c3ccc(Br)s3)cn2c1 | > 80 µM (inactive)
40 | CCOc1cc(CNc2ccc(N3CCCC3)cc2)cc(Cl)c1OC | > 80 µM (inactive)
41 | COc1cc(N2C(=O)C=CC2=O)ccc1N1C(=O)C=CC1=O | 16.5 µM
42 | CN1CCN(C(=O)c2sc(=S)n(-c3ccccc3)c2N)CC1 | 54.6 µM
43 | O=C1CCC[C@@H]2[C@@H](Cc3ccccc3)[C@H](N3CCN(c4ccccc4)CC3)C[C@@H]3CCN1[C@@H]32 | > 80 µM (inactive)
44 | Cc1c(N=C2C=C(Br)C(=O)C(Br)=C2)c(=O)n(-c2ccccc2)n1C | > 80 µM (inactive)
45 | COc1cc(SSc2cc(OC)cc([N+](=O)[O-])c2N)c(N)c([N+](=O)[O-])c1 | 13.1 µM
46 | CC1(C)CC2(CC(c3ccccc3F)c3ccc(O)c(O)c3O2)NC(=S)N1 (stereo not drawn) | 32.1 µM
47 | O=c1[nH]c2ccccc2n2c(-c3ccccc3)nnc12 | > 80 µM (inactive)
48 | CC1CCc2[nH]c3ccc(C(=O)N(C)CC(=O)Nc4ccccc4C(F)(F)F)cc3c2C1 (stereo not drawn) | > 80 µM (inactive)
49 | COc1ccc(S(=O)(=O)Nc2cc(SCC(=O)O)c(O)c3ccccc23)cc1 | > 80 µM (inactive)
50 | O=C(Cn1sc2ccccc2c1=O)Nc1ccccc1 | 15.6 µM
51 | C=CCOc1ccc(CNc2ccc3[nH]c(=O)[nH]c3c2)cc1OC | > 80 µM (inactive)
52 | CN(C)C=Nc1ccc2nc3c(cc2c1)[nH]c1ccccc13 | > 80 µM (inactive)

Row | Compound | IC50
53 | O=C(CNC(=O)c1cccs1)OCC(=O)c1ccc([N+](=O)[O-])cc1 | 62.5 µM
54 | COc1ccc(-c2cn3cc(C)ccc3n2)cc1Br | > 80 µM (inactive)
55 | O=C(NCCCN1CCOCC1)c1sc2cc([N+](=O)[O-])ccc2c1Cl | 49.2 µM
56 | CC(=NNC(=S)N1CCN(c2ccccn2)CC1)c1nccs1 | > 80 µM (inactive)
57 | CCC1(C)CC(C(N)=S)CCO1 (stereo not drawn) | > 80 µM (inactive)
58 | COc1cc(N=c2ssnc2Cl)cc(OC)c1OC | 54 µM
59 | O=C(Nc1ccc(N2CCOCC2)c(Cl)c1)c1ccc(Cl)cc1 | > 80 µM (inactive)
60 | CC(=O)Nc1ccc2c(c1)Cc1cc(N3C(=O)C=CC3=O)ccc1-2 | 23.7 µM
61 | Cc1ccc(C(=O)/C=C/C(=O)c2ccc(C)cc2)cc1 | 42 µM
62 | CCOc1ccccc1CNc1ccc(O)cc1 | > 80 µM (inactive)
63 | C[C@H](NC(N)=O)C(=O)Nc1ccc(N2CCOCC2)c(S(=O)(=O)Nc2ccc(Cl)cc2)c1 | > 80 µM (inactive)
64 | Cc1cc(C)c2c(=O)n(CC(=O)N3CCC(N4CCCCC4)CC3)sc2n1 | > 80 µM (inactive)
65 | COc1cccc(CNc2ccc3[nH]c(=O)[nH]c3c2)c1OCc1ccccc1Cl | > 80 µM (inactive)
66 | Cc1ccc(NS(=O)(=O)c2ccccc2Cl)c2c1CC(C)(C)O2 | > 80 µM (inactive)
67 | COc1ccc(C2(CNC(=O)c3ccc(OC)c([N+](=O)[O-])c3)CCCCC2)cc1OC | > 80 µM (inactive)
68 | COc1cc(NCCCn2cnc3c(OCc4ccccc4)ncnc32)cc(OC)c1OC | > 80 µM (inactive)
69 | COc1cc(C(=O)ON=C2C=C(C)C(=O)C(C)=C2)cc(OC)c1OC | > 80 µM (inactive)
70 | CN1CCc2cc(O)cc3c2[C@H]1Cc1ccc(O)c(O)c1-3 | > 80 µM (inactive)
71 | CC(C)c1nnc(NC(=O)c2cc3ccccc3o2)s1 | > 80 µM (inactive)
72 | Cc1ccc(/C=C/C(=O)NC2CCCCCCC2)o1 | > 80 µM (inactive)
73 | OCCN1CCN(C(=S)c2ccc(Cl)c(Cl)c2)CC1 | > 80 µM (inactive)
74 | Clc1nssc1=Nc1nncs1 | 35.6 µM
75 | CN1C(=O)C(N=Nc2ccc([N+](=O)[O-])cc2)SC1=S (stereo not drawn) | > 80 µM (inactive)
76 | COc1cc(NCCCn2cnc(C(=O)Nc3ccc(C)c(C)c3)n2)cc(OC)c1OC | > 80 µM (inactive)
77 | Cc1nnc(N/N=C\c2ccc(-c3cccc(C(=O)O)c3)o2)n1N | > 80 µM (inactive)
78 | CCN1CCN(c2nc(C)nc3c2sc(=S)n3C)CC1 | 43.7 µM

Row | Compound | IC50
79 | O=C(CN1C(=O)C2C3C=CC(C3)C2C1=O)OCC(=O)c1ccc([N+](=O)[O-])cc1 (stereo not drawn) | 56.7 µM
80 | O=c1c2ccccc2sn1-c1ccc(S(=O)(=O)N2CCCCC2)cc1 | > 80 µM (inactive)
81 | C/C(Cn1nnc([N+](=O)[O-])n1)=N\NC(=O)c1ccccc1O | > 80 µM (inactive)
82 | CCc1c(C(=O)Nc2ccccc2)c(C)[nH]c(=S)c1C#N | > 80 µM (inactive)
83 | Nc1c(C(=O)Nc2ccc(F)cc2)sc(=S)n1-c1ccccc1F | > 80 µM (inactive)
84 | [O-]/[N+](=C\c1ccco1)c1ccc(Cl)cc1 | > 80 µM (inactive)
85 | O=c1ccsn1Cc1ccccc1 | 55.8 µM
86 | Cc1ccc(S(=O)(=O)SC/C=C/CSS(=O)(=O)c2ccc(C)cc2)cc1 | 64.4 µM
87 | CCOc1cc(NCc2ccccc2)c2ncn(C(C)C)c2c1 | > 80 µM (inactive)
88 | CN1CCN(C(=S)C(=O)Nc2ccc(Br)cc2)CC1 | 67.9 µM
89 | CCOc1ccc(S(=O)(=O)Nc2cc(SCC(=O)O)c(O)c3ccccc23)cc1 | > 80 µM (inactive)
90 | Cc1ccc(-c2nn(C)c(=O)c3ccccc23)cc1CNC(=O)/C=C/c1ccccc1 | > 80 µM (inactive)
91 | COc1ccc(CCn2c(NN)nc3c2c(=O)[nH]c(=O)n3C)cc1 | > 80 µM (inactive)
92 | Clc1ccc(N=c2ssnc2Cl)nc1 | > 80 µM (inactive)
93 | Nn1c(CSc2nc3ccccc3o2)nnc1CSc1nc2ccccc2o1 | > 80 µM (inactive)
94 | COc1cc(N)c2ncsc2c1 | > 80 µM (inactive)
95 | CC1(C)Nc2ccc(O)cc2-c2c1ssc2=S | > 80 µM (inactive)
96 | COc1cc(NCc2ccccc2O)c2ncccc2c1 | > 80 µM (inactive)
97 | CCc1ccc(S(=O)(=O)Nc2cc(SCC(=O)O)c(O)c3ccccc23)cc1 | > 80 µM (inactive)
98 | O=C1Nc2cc(C(=O)NCCCN3CCCC3)ccc2S/C1=C\c1ccccc1 | > 80 µM (inactive)
99 | Cc1cc(C)c2c(=N)c3ccccc3n(CCCCCCCCn3c4ccccc4c(=N)c4c(C)cc(C)nc43)c2n1 | > 80 µM (inactive)
100 | N#C/C(C(=O)Nc1ccc(Cl)cc1)=C(/S)Nc1ccccc1 | > 80 µM (inactive)
101 | COc1cc(CN2CCCC(C(=O)c3ccc4c5c(cccc35)CC4)C2)cc(OC)c1O (stereo not drawn) | > 80 µM (inactive)
102 | C[c-]1[c-](C)[c-](C)[c-](C)[c-]1C.[Fe].c1cc2nccc(N3CCCC3)[c-]2c1 (stereo not drawn) | > 80 µM (inactive)
103 | CN=c1nc(-c2ccccc2)n(-c2ccccc2)s1 | 13.3 µM
